# Activity calls are given as the source filed them. The calls are words filed in the database; no cut-off is given here.
# Tested on: PC-3
# Test: Cell cycle arrest in human PC3 cells assessed as accumulation at M phase by Hoechst staining based fluorescence assay
# Type: functional
# Conditions: not given
row,SMILES,Activity
1,COc1cccc(/C=C/C(=O)c2c(OC)cc(OC)cc2OC)c1,Active

# Tested on: HCT-116
# Test: Cytotoxicity against human HCT116 cells assessed as cell survival at 50 uM after 48 hrs by Hoechst 33342 staining based assay relative to control
# Type: functional
# Conditions: HCT-116, 48 h, read-out: Survival
row,SMILES,viability at 50 µM
1,COc1cccc(/C=C/C(=O)c2c(OC)cc(OC)cc2OC)c1,0%

# Tested on: MCF7
# Test: Induction of apoptosis in human MCF7 cells harboring wild-type p53 assessed as increase in late apoptosis at 2 times IC50 after 24 hrs by YoPro/propidium iodide/Hoechst staining based assay
# Type: functional, cell-based
# Conditions: not given
row,SMILES,Activity
1,COc1cccc(/C=C/C(=O)c2c(OC)cc(OC)cc2OC)c1,Active

# Tested on: Caco-2
# Test: Cell cycle arrest in human Caco2 cells assessed as accumulation at S phase at 25 uM measured after 48 hrs by Hoechst/BrdU staining based fluorescence assay (reference value: […])
# Type: functional
# Conditions: not given
row,SMILES,Activity
1,COc1cccc(/C=C/C(=O)c2c(OC)cc(OC)cc2OC)c1,6%

# Tested on: HCT-116
# Test: Cell cycle arrest in human HCT116 cells harboring wild-type p53 assessed as accumulation at S phase at 25 uM measured after 48 hrs by Hoechst/BrdU staining based fluorescence assay (reference value: 68.4%)
# Type: functional
# Conditions: not given
row,SMILES,Activity
1,COc1cccc(/C=C/C(=O)c2c(OC)cc(OC)cc2OC)c1,0.6%

# Tested on: PC-3
# Test: Induction of apoptosis in human PC3 cells harboring p53 mutant assessed as upregulation of cyclinB1 after 48 hrs by Hoechst staining based assay
# Type: functional, cell-based
# Conditions: not given
row,SMILES,Activity
1,COc1cccc(/C=C/C(=O)c2c(OC)cc(OC)cc2OC)c1,Active

# Tested on: NCI-H727
# Test: Cell cycle arrest in human NCI-H727 cells harboring p53 mutant assessed as accumulation at S phase at 10 uM measured after 48 hrs by Hoechst/BrdU staining based fluorescence assay (reference value: 40.3%)
# Type: functional
# Conditions: not given
row,SMILES,Activity
1,COc1cccc(/C=C/C(=O)c2c(OC)cc(OC)cc2OC)c1,37%

# Tested on: HaCaT
# Test: Cytotoxicity against human HaCaT cells assessed as cell survival at 50 uM after 48 hrs by Hoechst 33342 staining based assay relative to control
# Type: functional
# Conditions: read-out: Survival
row,SMILES,viability at 50 µM
1,COc1cccc(/C=C/C(=O)c2c(OC)cc(OC)cc2OC)c1,18%

# Tested on: PC-3
# Test: Induction of apoptosis in human PC3 cells harboring p53 mutant assessed as increase in late apoptosis at 2 times IC50 after 48 hrs by YoPro/propidium iodide/Hoechst staining based assay
# Type: functional, cell-based
# Conditions: not given
row,SMILES,Activity
1,COc1cccc(/C=C/C(=O)c2c(OC)cc(OC)cc2OC)c1,Active

# Tested on: not listed separately
# Test: Selectivity index, ratio of IC50 for human fibroblasts to IC50 for human Caco2 cells
# Conditions: not given
row,SMILES,Ratio IC50
1,COc1cccc(/C=C/C(=O)c2c(OC)cc(OC)cc2OC)c1,>12.8

# Tested on: Huh-7
# Test: Cell cycle arrest in human HuH7 cells assessed as mitotic index at 10 uM measured after 48 hrs by Hoechst staining based fluorescence assay (reference value: 2.2)
# Type: functional
# Conditions: not given
row,SMILES,Activity_index
1,COc1cccc(/C=C/C(=O)c2c(OC)cc(OC)cc2OC)c1,12.3

# Tested on: NCI-H727
# Test: Cell cycle arrest in human NCI-H727 cells harboring p53 mutant assessed as accumulation at S phase at 25 uM measured after 48 hrs by Hoechst/BrdU staining based fluorescence assay (reference value: 40.3%)
# Type: functional
# Conditions: not given
row,SMILES,Activity
1,COc1cccc(/C=C/C(=O)c2c(OC)cc(OC)cc2OC)c1,5.1%

# Tested on: MDA-MB-231
# Test: Cytotoxicity against human MDA-MB-231 cells assessed as cell viability after 48 hrs by Hoechst 33342 staining based assay
# Type: functional
# Conditions: MDA-MB-231, 48 h
row,SMILES,IC50
1,COc1cccc(/C=C/C(=O)c2c(OC)cc(OC)cc2OC)c1,8.7 µM

# Tested on: MDA-MB-231
# Test: Cytotoxicity against human MDA-MB-231 cells assessed as cell survival at 50 uM after 48 hrs by Hoechst 33342 staining based assay relative to control
# Type: functional
# Conditions: MDA-MB-231, 48 h, read-out: Survival
row,SMILES,viability at 50 µM
1,COc1cccc(/C=C/C(=O)c2c(OC)cc(OC)cc2OC)c1,4%

# Tested on: not listed separately
# Test: Selectivity index, ratio of IC50 for human fibroblasts to IC50 for human MDA-MB-231 cells
# Conditions: not given
row,SMILES,Ratio IC50
1,COc1cccc(/C=C/C(=O)c2c(OC)cc(OC)cc2OC)c1,>5.7

# Tested on: not listed separately
# Test: Selectivity index, ratio of IC50 for human fibroblasts to IC50 for human HCT116 cells
# Conditions: not given
row,SMILES,Ratio IC50
1,COc1cccc(/C=C/C(=O)c2c(OC)cc(OC)cc2OC)c1,>11.6

# Tested on: MDA-MB-231
# Test: Induction of apoptosis in human MDA-MB-231 cells harboring p53 mutant assessed as increase in late apoptosis at 2 times IC50 after 24 hrs by YoPro/propidium iodide/Hoechst staining based assay
# Type: functional, cell-based
# Conditions: not given
row,SMILES,Activity
1,COc1cccc(/C=C/C(=O)c2c(OC)cc(OC)cc2OC)c1,Active

# Tested on: Huh-7
# Test: Cell cycle arrest in human HuH7 cells assessed as mitotic index at 25 uM measured after 48 hrs by Hoechst staining based fluorescence assay (reference value: 2.2)
# Type: functional
# Conditions: not given
row,SMILES,Activity_index
1,COc1cccc(/C=C/C(=O)c2c(OC)cc(OC)cc2OC)c1,1

# Tested on: MDA-MB-231
# Test: Cell cycle arrest in human MDA-MB-231 cells harboring p53 mutant assessed as mitotic index at 10 uM measured after 48 hrs by Hoechst staining based fluorescence assay (reference value: 2.1)
# Type: functional
# Conditions: not given
row,SMILES,Activity_index
1,COc1cccc(/C=C/C(=O)c2c(OC)cc(OC)cc2OC)c1,25

# Tested on: Caco-2
# Test: Cytotoxicity against human Caco2 cells assessed as cell survival at 50 uM after 48 hrs by Hoechst 33342 staining based assay relative to control
# Type: functional
# Conditions: Caco-2, 48 h, read-out: Survival
row,SMILES,viability at 50 µM
1,COc1cccc(/C=C/C(=O)c2c(OC)cc(OC)cc2OC)c1,2%

# Tested on: not listed separately
# Test: Selectivity index, ratio of IC50 for human fibroblasts to IC50 for human MCF7 cells
# Conditions: not given
row,SMILES,Ratio IC50
1,COc1cccc(/C=C/C(=O)c2c(OC)cc(OC)cc2OC)c1,>5.3

# Tested on: HaCaT
# Test: Cell cycle arrest in human HaCaT cells harboring […] p53 assessed as mitotic index at 10 uM measured after 48 hrs by Hoechst staining based fluorescence assay (reference value: 2.6)
# Type: functional
# Conditions: not given
row,SMILES,Activity_index
1,COc1cccc(/C=C/C(=O)c2c(OC)cc(OC)cc2OC)c1,17.5

# Tested on: RL
# Test: Cytotoxicity against human RL assessed as cell viability after 48 hrs by Hoechst 33342 staining based assay
# Type: functional
# Conditions: not given
row,SMILES,IC50
1,COc1cccc(/C=C/C(=O)c2c(OC)cc(OC)cc2OC)c1,5.9 µM

# Tested on: HCT-116
# Test: Cytotoxicity against human HCT116 cells assessed as cell viability after 48 hrs by Hoechst 33342 staining based assay
# Type: functional
# Conditions: HCT-116, 48 h
row,SMILES,IC50
1,COc1cccc(/C=C/C(=O)c2c(OC)cc(OC)cc2OC)c1,4.3 µM

# Tested on: MDA-MB-231
# Test: Cell cycle arrest in human MDA-MB-231 cells harboring p53 mutant assessed as accumulation at S phase at 10 uM measured after 48 hrs by Hoechst/BrdU staining based fluorescence assay (reference value: 42.2%)
# Type: functional
# Conditions: not given
row,SMILES,Activity
1,COc1cccc(/C=C/C(=O)c2c(OC)cc(OC)cc2OC)c1,43%

# Tested on: PC-3
# Test: Cell cycle arrest in human PC3 cells harboring p53 mutant assessed as accumulation at S phase at 10 uM measured after 48 hrs by Hoechst/BrdU staining based fluorescence assay (reference value: 40.8%)
# Type: functional
# Conditions: not given
row,SMILES,Activity
1,COc1cccc(/C=C/C(=O)c2c(OC)cc(OC)cc2OC)c1,23%

# Tested on: HaCaT
# Test: Cell cycle arrest in human HaCaT cells harboring […] p53 assessed as accumulation at S phase at 25 uM measured after 48 hrs by Hoechst/BrdU staining based fluorescence assay (reference value: 52.3%)
# Type: functional
# Conditions: not given
row,SMILES,Activity
1,COc1cccc(/C=C/C(=O)c2c(OC)cc(OC)cc2OC)c1,0%

# Tested on: MDA-MB-231
# Test: Cell cycle arrest in human MDA-MB-231 cells harboring p53 mutant assessed as accumulation at S phase at 25 uM measured after 48 hrs by Hoechst/BrdU staining based fluorescence assay (reference value: 42.2%)
# Type: functional
# Conditions: not given
row,SMILES,Activity
1,COc1cccc(/C=C/C(=O)c2c(OC)cc(OC)cc2OC)c1,12%

# Tested on: not listed separately
# Test: Selectivity index, ratio of IC50 for human fibroblasts to IC50 for human HuH7 cells
# Conditions: not given
row,SMILES,Ratio IC50
1,COc1cccc(/C=C/C(=O)c2c(OC)cc(OC)cc2OC)c1,>5.6

# Tested on: HCT-116
# Test: Cell cycle arrest in human HCT116 cells harboring wild-type p53 assessed as mitotic index at 25 uM measured after 48 hrs by Hoechst staining based fluorescence assay (reference value: 2.3)
# Type: functional
# Conditions: not given
row,SMILES,Activity_index
1,COc1cccc(/C=C/C(=O)c2c(OC)cc(OC)cc2OC)c1,1.2

# Tested on: HaCaT
# Test: Cell cycle arrest in human HaCaT cells harboring […] p53 assessed as accumulation at S phase at 10 uM measured after 48 hrs by Hoechst/BrdU staining based fluorescence assay (reference value: 52.3%)
# Type: functional
# Conditions: not given
row,SMILES,Activity
1,COc1cccc(/C=C/C(=O)c2c(OC)cc(OC)cc2OC)c1,19%

# Tested on: MCF7
# Test: Induction of apoptosis in human MCF7 cells harboring wild-type p53 assessed as increase in early apoptosis at 2 times IC50 after 24 hrs by YoPro/propidium iodide/Hoechst staining based assay
# Type: functional, cell-based
# Conditions: not given
row,SMILES,Activity
1,COc1cccc(/C=C/C(=O)c2c(OC)cc(OC)cc2OC)c1,Active

# Tested on: not listed separately
# Test: Selectivity index, ratio of IC50 for human fibroblasts to IC50 for human RL cells
# Conditions: not given
row,SMILES,Ratio IC50
1,COc1cccc(/C=C/C(=O)c2c(OC)cc(OC)cc2OC)c1,>8.5

# Tested on: PC-3
# Test: Cell cycle arrest in human PC3 cells harboring p53 mutant assessed as accumulation at S phase at 25 uM measured after 48 hrs by Hoechst/BrdU staining based fluorescence assay (reference value: 40.8%)
# Type: functional
# Conditions: not given
row,SMILES,Activity
1,COc1cccc(/C=C/C(=O)c2c(OC)cc(OC)cc2OC)c1,0.9%

# Tested on: MDA-MB-231
# Test: Cell cycle arrest in human MDA-MB-231 cells assessed as accumulation at M phase by Hoechst staining based fluorescence assay
# Type: functional
# Conditions: not given
row,SMILES,Activity
1,COc1cccc(/C=C/C(=O)c2c(OC)cc(OC)cc2OC)c1,Active

# Tested on: HCT-116
# Test: Induction of apoptosis in human HCT116 cells harboring wild-type p53 assessed as upregulation of p21 measured after 48 hrs by Hoechst staining based fluorescence assay
# Type: functional, cell-based
# Conditions: not given
row,SMILES,Activity
1,COc1cccc(/C=C/C(=O)c2c(OC)cc(OC)cc2OC)c1,Active

# Tested on: HaCaT
# Test: Cytotoxicity against human HaCaT cells assessed as cell viability after 48 hrs by Hoechst 33342 staining based assay
# Type: functional
# Conditions: not given
row,SMILES,IC50
1,COc1cccc(/C=C/C(=O)c2c(OC)cc(OC)cc2OC)c1,5.3 µM

# Tested on: NCI-H727
# Test: Cytotoxicity against human NCI-H727 cells assessed as cell survival at 50 uM after 48 hrs by Hoechst 33342 staining based assay relative to control
# Type: functional
# Conditions: NCI-H727, 48 h, read-out: Survival
row,SMILES,viability at 50 µM
1,COc1cccc(/C=C/C(=O)c2c(OC)cc(OC)cc2OC)c1,1%
